Results taken from article PMC10311946 (ACS chemical biology, 2023).
Values joined by “and” are separate entries in the source; they are usually repeats but may differ in a detail not shown here. Equal entries are not always repeated. “Also recorded” adds a separate entry of the source. Where two headings read alike, the source gives them in different places.

How the values were obtained:
E. coli FabH = conditions: for activating potential for FabH decarboxylation of malonyl-CoA to acetoacetyl-CoA: FabH incubated with 125 μM analog then 250 μM malonyl-CoA, HPLC progress curves; for Initial rate of hydrolysis to CoA or oxa(dethia)CoA / Initial rate, malonyl-CoA → acetyl-CoA/acetoacetyl-CoA: FabH wt, 10 μM FabH; for time to reaction completion: FabH
FabH [1] = biological target: T1, FabH (Escherichia coli, UniProt P0A6R0); experiment: continuous UV-Vis assay for the production of acetoacetyl-CoA; format: biochemical; conditions: for effect on FabH activity with acetyl-CoA and malonyl-CoA as substrates: UV-Vis assays
T1 sequence (P0A6R0 whole entry): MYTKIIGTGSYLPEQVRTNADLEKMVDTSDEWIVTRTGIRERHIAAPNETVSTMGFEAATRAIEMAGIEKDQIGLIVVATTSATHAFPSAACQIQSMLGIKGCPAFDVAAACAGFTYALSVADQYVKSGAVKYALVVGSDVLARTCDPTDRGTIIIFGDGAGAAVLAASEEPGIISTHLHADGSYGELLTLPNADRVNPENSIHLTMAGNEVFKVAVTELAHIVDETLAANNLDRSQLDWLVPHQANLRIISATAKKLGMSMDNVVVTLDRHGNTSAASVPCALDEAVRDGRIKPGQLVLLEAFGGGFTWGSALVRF

citrate synthase = conditions: cited from earlier work
phosphotransacetylase = conditions: cited from earlier work
FabH C112Q = format: biochemical, Escherichia coli; conditions: for Initial rate of hydrolysis to CoA or oxa(dethia)CoA / Initial rate, malonyl-CoA → acetyl-CoA/acetoacetyl-CoA: FabH C112Q, 10 μM enzyme; for stability with the FabH C112Q mutant: over 24 hours, 10 μM FabH C112Q
FabH [2] = biological target: T1, FabH; conditions: cited from earlier work
[3] = non-enzymatic stability/hydrolysis in buffer followed by HPLC; format: physicochemical; conditions: for Non-enzymatic hydrolysis rate: pH 6 and 7
[4] = biological target: fluoroacetyl-CoA hydrolase; conditions: cited from earlier work
[5] = competition with malonyl-CoA binding assumed, pH 8.0, 50 mM Mg2+
[6] = pH 8, ~250 μM substrate or analog
[7] = pH 6, ~250 μM substrate or analog
[8] = pH 7, ~250 μM substrate or analog
[9] = varying malonyl-CoA, acetyl-CoA at 125 μM, substrate inhibition model

CC(=O)NCCNC(=O)CCNC(=O)[C@H](O)C(C)(C)COP(=O)(O)OP(=O)(O)OC[C@H]1O[C@@H](n2cnc3c(N)ncnc32)[C@H](O)[C@@H]1OP(=O)(O)O [compound 2, acetyl-aza(dethia)CoA]
activating potential for FabH decarboxylation of malonyl-CoA to acetoacetyl-CoA (E. coli FabH): not strong activators | effect on FabH activity with acetyl-CoA and malonyl-CoA as substrates (FabH [1]): moderate inhibitor | Ki (FabH [1]; competition with malonyl-CoA binding assumed): 800 µM | Ki (FabH [1]; [5]): 800 ± 100 µM | Ki (citrate synthase): 1.6 µM | Ki (phosphotransacetylase): 130 µM

CC(=O)OCCNC(=O)CCNC(=O)[C@H](O)C(C)(C)COP(=O)(O)OP(=O)(O)OC[C@H]1O[C@@H](n2cnc3c(N)ncnc32)[C@H](O)[C@@H]1OP(=O)(O)O [compound 1, acetyl-oxa(dethia)CoA]
activating potential for FabH decarboxylation of malonyl-CoA to acetoacetyl-CoA (E. coli FabH): not strong activators | Initial rate of hydrolysis to CoA or oxa(dethia)CoA (E. coli FabH; [6]): ~ 0.003 min^−1 | Initial rate of hydrolysis to CoA or oxa(dethia)CoA (FabH C112Q; [6]): ~ 0.001 min^−1 | effect on FabH activity with acetyl-CoA and malonyl-CoA as substrates (FabH [1]): slightly activating; also recorded: did not find inhibition; also recorded: a couple percent activation | Ki (FabH [1]; [5]): weak activation

CC(=O)SCCNC(=O)CCNC(=O)[C@H](O)C(C)(C)COP(=O)(O)OP(=O)(O)OC[C@H]1O[C@@H](n2cnc3c(N)ncnc32)[C@H](O)[C@@H]1OP(=O)(O)O [acetyl-CoA]
Initial rate of hydrolysis to CoA or oxa(dethia)CoA (E. coli FabH; [7]): 0.0004 ± 0.0001 min⁻¹ | Initial rate of hydrolysis to CoA or oxa(dethia)CoA (E. coli FabH; [8]): 0.0010 ± 0.0001 min⁻¹ | Initial rate of hydrolysis to CoA or oxa(dethia)CoA (E. coli FabH; [6]): 0.0038 ± 0.0002 min⁻¹ | Initial rate of hydrolysis to CoA or oxa(dethia)CoA (FabH C112Q; [7]): 0.0005 ± 0.0001 min⁻¹ | Initial rate of hydrolysis to CoA or oxa(dethia)CoA (FabH C112Q; [8]): 0.0006 ± 0.0001 min⁻¹ | Initial rate of hydrolysis to CoA or oxa(dethia)CoA (FabH C112Q; [6]): 0.0030 ± 0.0001 min⁻¹ | transthiolation rate (FabH [2]): 0.05 s⁻¹ | Km (FabH [2]; read-out: apparent KM, pH 7.0, malonyl-S-ACP as acceptor ref 32, 35): 40 µM | Non-enzymatic hydrolysis rate [3]: ~ 0.0004 min^−1 | Non-enzymatic hydrolysis rate at pH 8 relative to pH 6 and 7 [3]: ~ 10 times higher | Km (FabH [1]; read-out: apparent Km, varying acetyl-CoA with 125 μM malonyl-CoA): 0.3 ± 0.1 µM | Km (citrate synthase): 8.5 µM | Km (phosphotransacetylase): 210 µM

CC(C)(COP(=O)(O)OP(=O)(O)OC[C@H]1O[C@@H](n2cnc3c(N)ncnc32)[C@H](O)[C@@H]1OP(=O)(O)O)[C@@H](O)C(=O)NCCC(=O)NCCSC(=O)CC(=O)O [malonyl-CoA]
Initial rate, malonyl-CoA → acetyl-CoA/acetoacetyl-CoA (E. coli FabH; pH 7, ~250 μM substrate): biphasic | Initial rate, malonyl-CoA → acetyl-CoA/acetoacetyl-CoA (E. coli FabH; pH 8, ~250 μM substrate, 25 μM acetyl-CoA to alleviate lag phase, value is for acetoacetyl-CoA appearance): 0.043 ± 0.001^‡ min^−1 | time to reaction completion (E. coli FabH; malonyl-CoA with priming acetyl-CoA (10% of malonyl-CoA)): about 250 min | time to reaction completion (E. coli FabH; malonyl-CoA without priming acetyl-CoA (Figure 2J)): 620 min | FabH C112Q decarboxylation relative to activated wild-type in the absence of acetyl-CoA (FabH C112Q): 5 times faster | Initial rate of hydrolysis to CoA or oxa(dethia)CoA (FabH C112Q; [7]): 0.0005 ± 0.0001 min⁻¹ | Initial rate, malonyl-CoA → acetyl-CoA/acetoacetyl-CoA (FabH C112Q; pH 6, ~250 μM substrate): 0.0060 ± 0.0006 min⁻¹ | Initial rate of hydrolysis to CoA or oxa(dethia)CoA (FabH C112Q; [8]): 0.0007 ± 0.0001 min⁻¹ | Initial rate, malonyl-CoA → acetyl-CoA/acetoacetyl-CoA (FabH C112Q; pH 7, ~250 μM substrate): 0.18 ± 0.01 min⁻¹ | Initial rate of hydrolysis to CoA or oxa(dethia)CoA (FabH C112Q; [6]): 0.0032 ± 0.0005 min⁻¹ | Initial rate, malonyl-CoA → acetyl-CoA/acetoacetyl-CoA (FabH C112Q; pH 8, ~250 μM substrate): 0.20 ± 0.02 min⁻¹ | Non-enzymatic hydrolysis rate [3]: ~ 0.0004 min^−1 | Non-enzymatic hydrolysis rate at pH 8 relative to pH 6 and 7 [3]: ~ 10 times higher | Ki (FabH [1]; read-out: Ki (substrate inhibition), varying malonyl-CoA, acetyl-CoA at 125 μM, substrate inhibition model): 1900 ± 600 µM | Km (FabH [1]; [9]): 2500 µM and ~2500 µM | kcat (FabH [1]; [9]): 0.0983 ± 0.0233 s⁻¹

CC(C)(COP(=O)(O)OP(=O)(O)OCC1OC(n2cnc3c(N)ncnc32)C(O)C1OP(=O)(O)O)C(O)C(=O)NCCC(=O)NCCNC(=O)CF (stereo not drawn) [fluoroacetyl-aza(dethia)CoA]
Kd [4]: 1700 µM

CC(C)(COP(=O)(O)OP(=O)(O)OC[C@H]1O[C@@H](n2cnc3c(N)ncnc32)[C@H](O)[C@@H]1OP(=O)(O)O)[C@@H](O)C(=O)NCCC(=O)NCCOC(=O)CC(=O)O [compound 3, malonyl-oxa(dethia)CoA]
Decarboxylation by FabH (E. coli FabH): not detected | Initial rate of hydrolysis to CoA or oxa(dethia)CoA (E. coli FabH; [6]): ~ 0.001 min^−1 | Decarboxylation by C112Q mutant (FabH C112Q): not detected | Initial rate of hydrolysis to CoA or oxa(dethia)CoA (FabH C112Q; [6]): ~ 0.001 min^−1 | stability with the FabH C112Q mutant (FabH C112Q): relatively unreactive | Ki (FabH [1]; [5]): 800 ± 400 µM

CC(C)(COP(=O)(O)OP(=O)(O)OC[C@H]1O[C@@H](n2cnc3c(N)ncnc32)[C@H](O)[C@@H]1OP(=O)(O)O)[C@@H](O)C(=O)NCCC(=O)NCCN [compound 6, aza(dethia)CoA]
Ki (FabH [1]; [5]): 900 ± 400 µM

CC(C)(COP(=O)(O)OP(=O)(O)OC[C@H]1O[C@@H](n2cnc3c(N)ncnc32)[C@H](O)[C@@H]1OP(=O)(O)O)[C@@H](O)C(=O)NCCC(=O)NCCO [compound 5, oxa(dethia)CoA]
Ki (FabH [1]; [5]): 400 ± 200 µM

CC(C)(COP(=O)(O)OP(=O)(O)OC[C@H]1O[C@@H](n2cnc3c(N)ncnc32)[C@H](O)[C@@H]1OP(=O)(O)O)[C@@H](O)C(=O)NCCC(=O)NCCSC(=O)CF [fluoroacetyl-CoA]
Km [4]: 8 µM

CC(C)(COP(=O)(O)OP(=O)(O)OC[C@H]1O[C@@H](n2cnc3c(N)ncnc32)[C@H](O)[C@@H]1OP(=O)(O)O)[C@@H](O)C(=O)NCCC(=O)NCCS [CoA]
Ki (FabH [1]; [5]): 150 ± 70 µM

CC(C)(COP(=O)(O)OP(=O)(O)OC[C@H]1O[C@@H](n2cnc3c(N)ncnc32)[C@H](O)[C@@H]1OP(=O)(O)O)[C@@H](O)C(=O)NCCC(=O)NCCNC(=O)CC(=O)O [compound 4, malonyl-aza(dethia)CoA]
stability with the FabH C112Q mutant (FabH C112Q): completely stable | Ki (FabH [1]; [5]): 700 ± 300 µM

CC(C)(COP(=O)(O)OP(=O)(O)OC[C@H]1O[C@@H](n2cnc3c(N)ncnc32)[C@H](O)[C@@H]1OP(=O)(O)O)[C@@H](O)C(=O)NCCC(=O)NCCOC(=O)CF [fluoroacetyl-oxa(dethia)CoA]
Kd [4]: 90 µM
